Reference: PubChem BioAssay AID1963835 (Molecular Pharmacology Branch, DTP, NCI, 2024)

Test system: 699152-130-R-J1-PDC complex spheroid viability
Assay: Anticancer human tumor 699152-130-R-J1-PDC patient-derived pancreatic carcinoma cell line growth inhibition [POLQ]
Conditions: for IC50: curve of first compound; for viability, T/C: stronger effect = lower value
In short: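 Growth inhibition in 3D: complex spheroids (tumor PDC, HUVEC, MSC) treated with POLQ inhibitor combinations; where Cmax unknown, highest tested concentration 10 microM, except SN-38 at 1 microM.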

[1] = second compound 0.0316 µM, first compound 0.0316 µM
[2] = second compound 0.0316 µM, first compound 0.1 µM
[3] = second compound 0.0316 µM, first compound 0.316 µM
[4] = second compound 0.0316 µM, first compound 1 µM
[5] = second compound 0.0316 µM, first compound 3.16 µM
[6] = second compound 0.0316 µM, first compound 10 µM
[7] = second compound 0.1 µM, first compound 0.0316 µM
[8] = second compound 0.1 µM, first compound 0.1 µM
[9] = second compound 0.1 µM, first compound 0.316 µM
[10] = second compound 0.1 µM, first compound 1 µM
[11] = second compound 0.1 µM, first compound 3.16 µM
[12] = second compound 0.1 µM, first compound 10 µM
[13] = second compound 0.316 µM, first compound 0.0316 µM
[14] = second compound 0.316 µM, first compound 0.1 µM
[15] = second compound 0.316 µM, first compound 0.316 µM
[16] = second compound 0.316 µM, first compound 1 µM
[17] = second compound 0.316 µM, first compound 3.16 µM
[18] = second compound 0.316 µM, first compound 10 µM
[19] = second compound 1 µM, first compound 0.0316 µM
[20] = second compound 1 µM, first compound 0.1 µM
[21] = second compound 1 µM, first compound 0.316 µM
[22] = second compound 1 µM, first compound 1 µM
[23] = second compound 1 µM, first compound 3.16 µM
[24] = second compound 1 µM, first compound 10 µM
[25] = second compound 3.16 µM, first compound 0.0316 µM
[26] = second compound 3.16 µM, first compound 0.1 µM
[27] = second compound 3.16 µM, first compound 0.316 µM
[28] = second compound 3.16 µM, first compound 1 µM
[29] = second compound 3.16 µM, first compound 3.16 µM
[30] = second compound 3.16 µM, first compound 10 µM
[31] = second compound 10 µM, first compound 0.0316 µM
[32] = second compound 10 µM, first compound 0.1 µM
[33] = second compound 10 µM, first compound 0.316 µM
[34] = second compound 10 µM, first compound 1 µM
[35] = second compound 10 µM, first compound 3.16 µM
[36] = second compound 10 µM, first compound 10 µM
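Note: spheroids exposed to agents for 7 days before viability reading.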
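Throughout, for viability, T/C: percent of DMSO vehicle control viability so 100% = vehicle and 0% = no viable signal.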

CCc1cc2c(N3CCc4c(cc(Cn5ccnc5)cc4-c4cn(C)nc4C(F)(F)F)C3=O)cc(C)nc2c(OC)n1 + Nc1ccc(C#CCN(C(=O)Cc2ncc(C(F)(F)F)cc2C(F)(F)F)c2ccc(F)cc2)nn1
IC50 (second compound 0.0316 µM): > 10 µM
IC50 (second compound 0.1 µM): > 10 µM
IC50 (second compound 0.316 µM): > 10 µM
IC50 (second compound 1 µM): > 10 µM
IC50 (second compound 3.16 µM): > 10 µM
IC50 (second compound 10 µM): > 10 µM
viability, T/C [1]: 85.8%
viability, T/C [2]: 89.8%
viability, T/C [3]: 97.3%
viability, T/C [4]: 101%
viability, T/C [5]: 99.4%
viability, T/C [6]: 106%
viability, T/C [7]: 87.7%
viability, T/C [8]: 88.8%
viability, T/C [9]: 96.9%
viability, T/C [10]: 93.4%
viability, T/C [11]: 100%
viability, T/C [12]: 107%
viability, T/C [13]: 89.5%
viability, T/C [14]: 94.2%
viability, T/C [15]: 101%
viability, T/C [16]: 89.7%
viability, T/C [17]: 97%
viability, T/C [18]: 101%
viability, T/C [19]: 86.5%
viability, T/C [20]: 93.6%
viability, T/C [21]: 95.6%
viability, T/C [22]: 95.5%
viability, T/C [23]: 100%
viability, T/C [24]: 104%
viability, T/C [25]: 105%
viability, T/C [26]: 95.7%
viability, T/C [27]: 102%
viability, T/C [28]: 106%
viability, T/C [29]: 107%
viability, T/C [30]: 106%
viability, T/C [31]: 99.8%
viability, T/C [32]: 118%
viability, T/C [33]: 110%
viability, T/C [34]: 107%
viability, T/C [35]: 117%
viability, T/C [36]: 115%

C#Cc1c(F)ccc2cc(O)cc(-c3ncc4c(N5CC6CCC(C5)N6)nc(OCC56CCCN5CC(F)C6)nc4c3F)c12 (centres undefined) + Cc1cccc(N(C)C(=O)C2C(O)CCN2c2nc(C)cc(C(F)(F)F)c2C#N)c1
IC50 (second compound 0.0316 µM): < 0.0316 µM
IC50 (second compound 0.1 µM): < 0.0316 µM
IC50 (second compound 0.316 µM): < 0.0316 µM
IC50 (second compound 1 µM): < 0.0316 µM
IC50 (second compound 3.16 µM): < 0.0316 µM
IC50 (second compound 10 µM): < 0.0316 µM
viability, T/C [1]: 27.9%
viability, T/C [2]: 17.8%
viability, T/C [3]: 22.6%
viability, T/C [4]: 13.8%
viability, T/C [5]: 12.4%
viability, T/C [6]: 12.1%
viability, T/C [7]: 25.5%
viability, T/C [8]: 16.7%
viability, T/C [9]: 15.5%
viability, T/C [10]: 13.2%
viability, T/C [11]: 13.8%
viability, T/C [12]: 13.1%
viability, T/C [13]: 26.9%
viability, T/C [14]: 18.4%
viability, T/C [15]: 14.5%
viability, T/C [16]: 13.8%
viability, T/C [17]: 14.6%
viability, T/C [18]: 12.4%
viability, T/C [19]: 21.9%
viability, T/C [20]: 20.6%
viability, T/C [21]: 15.3%
viability, T/C [22]: 13.2%
viability, T/C [23]: 15.1%
viability, T/C [24]: 13.8%
viability, T/C [25]: 22.9%
viability, T/C [26]: 17.1%
viability, T/C [27]: 17.4%
viability, T/C [28]: 16.5%
viability, T/C [29]: 15.2%
viability, T/C [30]: 12.8%
viability, T/C [31]: 21.5%
viability, T/C [32]: 18.4%
viability, T/C [33]: 17.1%
viability, T/C [34]: 14.3%
viability, T/C [35]: 13.4%
viability, T/C [36]: 15.3%
